The record followed here is patent publication US20250328351A1, “CARBONIC ANHYDRASE INHIBITORS AND ANTIBIOTICS AGAINST MULTIDRUG RESISTANT BACTERIA” (Purdue Research Foundation, priority 2018, published 2025).

≈ marks a conversion by molar mass, not a printed value. Like-named read-outs stand apart in the source and are kept apart here.

One series has as its system Caco-2 cells. Kind of series: In vitro cytotoxicity, MTS assay. As to conditions: concentration up to 128 μg/mL; two hours incubation. The procedure: Method: Compounds AS005H, AS005J, AS004B, AS005K, AS005A and 005D were assayed (at concentrations of 64 and 128 μg/mL) against a human colorectal adenocarcinoma (Caco-2) cell to determine the potential toxic effect to mammalian cells in vitro. Briefly, cells were cultured in Dulbecco's Modified Eagle Medium (DMEM) supplemented with 20% fetal bovine serum (FBS), non-essential amino acids (1×), penicillin-streptomycin at 37° C. with CO2 (5%). Control cells received DMSO alone at a concentration equal to that in drug-treated cell samples. The cells were incubated with the compounds (in triplicate) in a 96-well plate at 37° C. with CO2 (5%) for two hours. The assay reagent MTS 3-(4,5-dimethylthiazol-2-yl)-5-(3-carboxymethoxyphenyl)-2-(4-sulfophenyl)-2H-tetrazolium) (Promega, Madison, WI, USA) was subsequently added and the plate was incubated for four hours. Absorbance readings (at OD490) were taken using a kinetic microplate reader (Molecular Devices, Sunnyvale, CA, USA). The quantity of viable cells after treatment with each compound was expressed as a percentage of the viability of DMSO-treated control cells (average of triplicate wells±standard deviation). The toxicity data was analyzed via a two-way ANOVA, with post hoc Dunnet's multiple comparisons test (P<0.05), utilizing GraphPad Prism 6.0 (GraphPad Software, La Jolla, CA).
Percent viable mammalian cells (measured as average absorbance ratio (test agent relative to DMSO) for cytotoxicity analysis of AS005H, AS005J, AS004B, AS005K, AS005A and 005D compounds (tested in triplicate) at 64 and 128 μg/mL against Caco-2 cells using the MTS 3-(4,5-dimethylthiazol-2-yl)-5-(3-carboxymethoxyphenyl)-2-(4-sulfophenyl)-2H-tetrazolium) assay. Dimethyl sulfoxide (DMSO) was used as a negative control to determine a baseline measurement for the cytotoxic impact of each compound. The absorbance values represent an average of a minimum of three samples analyzed for each compound. Error bars represent standard deviation values for the absorbance values. A two-way ANOVA, with post hoc Dunnet's multiple comparisons test, determined statistical difference (denoted by the asterisk) (P<0.05) between the values obtained for each compound and DMSO (negative control, used as solvent for the compounds).

The subject of series [1] is Bacteroides fragilis CL07T00C01 HM-709. Nature of the series: MIC against human normal gut microbiota. It is filed as cell-based. As to conditions: Table 3, BHIS broth, anaerobic, 48 hours, read-out: MIC. The procedure:
(§1) Three different bacterial strains were used in this experiment; Bifidobacterium (anaerobic Gram positive bacteria), Bacteroides (anaerobic Gram negative bacteria) and Lactobacillus (microaerophilic Gram positive bacteria). Bifidobacterium and Bacteroides were first grown for 48 hours at 37° C., anaerobically using brain heart infusion supplemented (BHIS) agar (Brain heart infusion agar supplemented with hemin, vitamin K and L-cysteine). Lactobacillus was cultivated on MRS agar and incubated in presence of 5% CO2 for 48 hours at 37° C. Each bacterium was suspended in phosphate buffered saline (PBS) to produce a suspension with optical density that matches 0.5 McFarland standard and diluted in brain heart infusion supplemented broth (for Bifidobacterium and Bacteroides) or in MRS broth (for Lactobacillus) to achieve bacterial concentration of approximately 5×10^5 CFU/ml. Bacteria were then seeded in 96-well plates containing serial dilutions of the compounds and incubated as mentioned previously for 48 hours.

For series [2], the system named is Bifidobacterium breve JCP7499 HM 1120. Nature of the series: MIC against human normal gut microbiota. It is filed as cell-based. As to conditions: JCP7499HM1120, Table 3, BHIS broth, anaerobic, 48 hours, read-out: MIC. As to the method: as §1
The subject of series [3] is Bacteroides dorei CL02T12C06 HM-719. Nature of the series: MIC against human normal gut microbiota. The format is cell-based. As to conditions: Phocaeicola dorei; Table 3; BHIS broth, anaerobic, 48 hours; read-out: MIC. As to the method:
as §1

For a further series, the system named is VERO cells. Nature of the series: In vitro cytotoxicity, MTS assay. It is filed as cell-based, monkey. As to conditions: concentration up to 128 μg/mL; two hours incubation. The procedure: Toxicity assessment: Compounds AS005H, AS005J, AS004B, AS005K, AS005A and 005D were assayed (at concentrations of 64 and 128 μg/mL) against a fibroblast-like monkey kidney cell line (VERO cell) to determine the potential toxic effect in vitro. Briefly, cells were cultured in Minimum Essential Medium (MEM) supplemented with 10% fetal bovine serum (FBS), 1 mM sodium pyruvate, and penicillin-streptomycin at 37° C. with CO2 (5%). Control cells received DMSO alone at a concentration equal to that in drug-treated cell samples. The cells were incubated with the compounds (in triplicate) in a 96-well plate at 37° C. with CO2 (5%) for two hours. The assay reagent MTS 3-(4,5-dimethylthiazol-2-yl)-5-(3-carboxymethoxyphenyl)-2-(4-sulfophenyl)-2H-tetrazolium) (Promega, Madison, WI, USA) was subsequently added and the plate was incubated for four hours. Absorbance readings (at OD490) were taken using a kinetic microplate reader (Molecular Devices, Sunnyvale, CA, USA). The quantity of viable cells after treatment with each compound was expressed as a percentage of the viability of DMSO-treated control cells (average of triplicate wells±standard deviation). The toxicity data was analyzed via a two-way ANOVA, with post hoc Dunnet's multiple comparisons test (P<0.05), utilizing GraphPad Prism 6.0 (GraphPad Software, La Jolla, CA).
Percent viable mammalian cells (measured as average absorbance ratio (test agent relative to DMSO) for cytotoxicity analysis of compounds AS005H, AS005J, AS004B, AS005K, AS005A and 005D (tested in triplicates) at 64 and 128 μg/mL against VERO cells using the MTS 3-(4,5-dimethylthiazol-2-yl)-5-(3-carboxymethoxyphenyl)-2-(4-sulfophenyl)-2H-tetrazolium) assay. Dimethyl sulfoxide (DMSO) was used as a negative control to determine a baseline measurement for the cytotoxic impact of each compound. The absorbance values represent an average of a minimum of three samples analyzed for each compound. Error bars represent standard deviation values for the absorbance values.

In series [4] the test system is Enterococcus faecalis S613 HM-334. Nature of the series: MIC, broth microdilution (CLSI). The format is cell-based. As to conditions: Enterococcus faecalis, TSB, read-out: MIC. The procedure: (§2) The minimum inhibitory concentrations (MICs) of the compounds and control drugs were determined using the broth microdilution method, according to guidelines outlined by the Clinical and Laboratory Standards Institute (CLSI). Enterococci strains were grown aerobically overnight on tryptone soya agar plates at 37° C., afterwards a bacterial solution equivalent to 0.5 McFarland standard was prepared and diluted in tryptone soy broth (TSB) to achieve a bacterial concentration of about 5×10^5 CFU/mL and seeded in 96-well well plates. Compounds and control drugs were added in the first row of the 96-well plates and serially diluted along the plates. Plates were then incubated aerobically at 37° C. for 18-20 hours. MICs reported in Table 1 are the minimum concentration of the compounds/control drugs that could inhibit completely the visual growth of the bacteria.
(§3) The minimum inhibitory concentrations (MICs) of CAIs were tested against clinical isolates of vancomycin sensitive and vancomycin resistant Enterococci strains as per the guidelines provided by the Clinical and Laboratory Standards Institute (CLSI). The selected strains of Enterococci were streaked on Tryptic Soy Agar (TSA) plates and let grow for 24 hours at 37° C. Afterwards, a bacterial solution equivalent to 0.5 McFarland standard was prepared and diluted in tryptone soy broth (TSB) or brain heart infusion broth (BHIB) to achieve a bacterial concentration of about 5×10^5 CFU/mL and seeded in 96-well well plates. Compounds and control drugs were added in the first row of the 96-well plates and serially diluted along the plates. Plates were then incubated aerobically at 37° C. for 18-20 hours. MICs reported in Table 5 are the minimum concentration of the compounds/control drugs that could inhibit completely the visual growth of the bacteria.
The minimum inhibitory concentrations (MICs) of CAIs were tested against vancomycin resistant Enterococcus faecalis—S613 HM 334 strain as per the guidelines provided by the Clinical and Laboratory Standards Institute (CLSI). The selected strain was streaked on Tryptic Soy Agar (TSA) plate and let grow for 24 hours at 37° C. […] Compounds and control drugs were added in the first row of the 96-well plates and serially diluted along the plates. Plates were then incubated aerobically at 37° C. for 18-20 hours. MICs reported in table (6) are the minimum concentration of the compounds/control drugs that could inhibit completely the visual growth of the bacteria.
Background: In broth dilution the organism is exposed to a series of concentrations in liquid medium.

The test system of series [5] is Enterococcus faecium E417 - HM-965. Kind of series: MIC, broth microdilution (CLSI). As to conditions: Enterococcus faecium, E417HM965, Table 7; TSB; read-out: MIC. The format is cell-based. As to the method: as §2, §3
Series [6] relates to Enterococcus faecium Patient #2-1 - NR-31909. Nature of the series: MIC, broth microdilution (CLSI). It is filed as cell-based. As to conditions: Enterococcus faecium, Table 7; TSB; read-out: MIC. As to the method: as §2, §3
Series [7] relates to Enterococcus fecalis Strain SF 24397 NR31970. Nature of the series: MIC, broth microdilution (CLSI). It is filed as cell-based. As to conditions: Enterococcus, Table 7; TSB; read-out: MIC. As to the method: as §2, §3
In series [8] the test system is Enterococcus fecalis Strain SF 28073 - NR31972. Kind of series: MIC, broth microdilution (CLSI). As to conditions: Enterococcus, Table 7; TSB; read-out: MIC. The format is cell-based. As to the method: as §2
Series [9] relates to Enterococcus faecium Patient #3-1 NR-31912. Nature of the series: MIC, broth microdilution (CLSI). The format is cell-based. As to conditions: Enterococcus faecium, Table 7; TSB; read-out: MIC. As to the method: as §2
The test system of series [10] is Enterococcus fecalis Strain SF24413 NR31971. Nature of the series: MIC, broth microdilution (CLSI). It is filed as cell-based. As to conditions: Enterococcus, Table 7; TSB; read-out: MIC. As to the method: as §2

As usually defined, the MIC is the lowest concentration that inhibits growth of the organism. For `CCc1ccc(C(=O)Nc2nnc(S(N)(=O)=O)s2)cc1` [CAI0017, 4-Ethyl-N-(5-sulfamoyl-1,3,4-thiadiazol-2-yl)benzamide], the “toxicity to Caco-2 cells (percent viable cells, MTS)” value in the series on Caco-2 cells was “non-toxic”. In addition, the MIC is over 64 µg/mL in [1]; over 64 µg/mL in [2]; over 64 µg/mL in series [3]; 1 µg/mL (≈ 3.2 µM) in series [4] (S613HM334, Table 1); 1 µg/mL (≈ 3.2 µM) in series [4] (S613HM334, Table 7). In addition, in the series with VERO cells, the “toxicity to VERO cells (percent viable cells, MTS)” value was “non-toxic”.
For `NS(=O)(=O)c1nnc(NC(=O)C=CC2CCCCC2)s1` [CAI0019, 3-cyclohexyl-N-(5-sulfamoyl-1,3,4-thiadiazol-2-yl)propenamide], the MIC is 0.007 µg/mL (≈ 0.0221 µM) in series [5]; 0.003 µg/mL (≈ 0.00948 µM) in [6]; 0.015 µg/mL (≈ 0.0474 µM) in series [7]; 0.015 µg/mL (≈ 0.0474 µM) in [8]; 0.007 µg/mL (≈ 0.0221 µM) in [9]; 0.015 µg/mL (≈ 0.0474 µM) in [10]. Besides, in series [4] (S613HM334, Table 7), the MIC worked out at 0.007 µg/mL (≈ 0.0221 µM).
